Numbered stars: 1 amine (or outer) side, 2 acyl side, 3 side chain; on linkers, the order of the positions; unused ones are H or OH. Bridge positions count the residues as written; N and C are the ends. Square brackets hold non-standard residues; d marks the D form. Peptide text beside a SMILES is read from it. * marks the point of attachment. ξ: configuration not given here. pTerphenylCO(4''-OnC5H11) = CCCCCOc1ccc(-c2ccc(-c3ccc(C(=O)*)cc3)cc2)cc1; Orn(4R-OH,5R-OH) = O=C([C@H](C[C@@H](O)[C@@H](O)N[*:3])N[*:1])[*:2]; X8 = O=C(C[C@@H](CCc1ccc(-c2ccc(OCCCc3ccccc3)cc2)cc1)N[*:2])[*:1]; hTyr(3S-OH,4S-OH) = N[C@H](C(=O)O)[C@H](O)[C@@H](O)c1ccc(O)cc1; X5 = CC(C)CCCOc1ccc(-c2ccc(CC[C@H](CC(=O)[*:1])N[*:2])cc2)cc1; X13 = CCCCCOc1ccc(-c2ccc(CC[C@H](CC(=O)[*:1])N[*:2])cc2)cc1; X10 = CCCCCCCCCOc1ccc2cc(CC[C@H](CC(=O)[*:1])N[*:2])ccc2c1; Pro(3S-OH,4S-Me) = C[C@H]1CN[C@H](C(=O)O)[C@H]1O; X6 = CCCCCCCCCCCCC[C@H](CC(=O)NC(C(=O)O)C(C)O)O*; X12 = NCC(=O)Nc1cc(CC(N[*:1])C(=O)[*:2])ccc1O; X9 = CCCCCCCCCCCCC[C@H](CC(=O)[*:1])O[*:2]; X2 = NC(=O)CC(O)C(N[*:1])C(=O)[*:2]; ξDopa = NC(Cc1ccc(O)c(O)c1)C(=O)O; Hyp = O=C(O)[C@@H]1C[C@@H](O)CN1; X1 = O=C(C1C(O)CCN1[*:1])[*:2]; ξY = NC(Cc1ccc(O)cc1)C(=O)O; ξHyp = O=C(O)C1CC(O)CN1; ξOrn = NCCCC(N)C(=O)O; ξT = CC(O)C(N)C(=O)O; ξV = CC(C)C(N)C(=O)O; ξP = O=C(O)C1CCCN1; ξA = CC(N)C(=O)O; Sar = CNCC(=O)O
Test system: mouse hepatocytes
Assay: In vitro hepatotoxicity test
Type: cell-based
Conditions: mouse hepatocyte monolayers exposed 1 day, morphological evaluation
From the text: The mouse hepatocytes were isolated by a collagenase digestion and cultured in microtest plates. The hepatocyte monolayers were exposed to the test Aerothricins in the culture system for 1 day. After the culture period, the hepatocytes were observed under a microscope and evaluated morphologically. The degree of the morphological alteration (degeneration) of the hepatocytes by the test Aerothricins were compared with WF 11243 and LY303366.
CCCCCCCCCCOc1ccc(CC[C@@H]2CC(=O)NC(C(C)O)C(=O)NC(C)C(=O)NC(Cc3ccc(O)cc3)C(=O)NC(C(C)C)C(=O)N3CC(O)CC3C(=O)NC(C(C)O)C(=O)NC(C(C)O)C(=O)N3CCC(O)C3C(=O)NC(C(O)CC(N)=O)C(=O)NCC(=O)NC(C(C)O)C(=O)NC(CCCN)C(=O)N2)cc1 (single isomer, unassigned) [Aerothricin 47] gave a Cytotoxicity to hepatocyte of over 100 µg/mL.
Compound CCCCCCCCCCCCC[C@@H]1CC(=O)NC(C(C)O)C(=O)NC(C)C(=O)NC(Cc2ccc(O)cc2)C(=O)NC(C(C)C)C(=O)N2CC(O)CC2C(=O)NC(C(C)O)C(=O)NC(C(C)O)C(=O)N2CCC(O)C2C(=O)NC(C(O)CC(N)=O)C(=O)NCC(=O)NC(C(C)O)C(=O)NC(CCCNC(=O)CNC)C(=O)O1 (some centres unmarked) [Aerothricin 14] ([ξT][ξA][ξY][ξV][ξHyp][ξT][ξT][X1][X2]G[ξT][ξOrn](Sar); linker N-C via X9) has a Cytotoxicity to hepatocyte of over 100 µg/mL.
CCCCCCCCCCCCC[C@@H]1CC(=O)NC(C(C)O)C(=O)NC(C)C(=O)NC(Cc2ccc(O)cc2)C(=O)NC(C(C)C)C(=O)N2CC(O)CC2C(=O)NC(C(C)O)C(=O)NC(C(C)O)C(=O)N2CCC(O)C2C(=O)NC(C(O)CC(N)=O)C(=O)NCC(=O)NC(C(C)O)C(=O)NC(CCCNC(=O)C2CCCN2)C(=O)O1 (some centres unmarked) [Aerothricin 15] ([ξT][ξA][ξY][ξV][ξHyp][ξT][ξT][X1][X2]G[ξT][ξOrn](ξP); linker N-C via X9) gave a Cytotoxicity to hepatocyte of over 100 µg/mL.
With CCCCCCCCCCCCC[C@@H]1CC(=O)NC(C(C)O)C(=O)NC(C)C(=O)NC(Cc2ccc(O)c(NC(=O)CN)c2)C(=O)NC(C(C)C)C(=O)N2CC(O)CC2C(=O)NC(C(C)O)C(=O)NC(C(C)O)C(=O)N2CCC(O)C2C(=O)NC(C(O)CC(N)=O)C(=O)NCC(=O)NC(C(C)O)C(=O)NC(CCCNC(=O)CN)C(=O)O1 (some centres unmarked) [Aerothricin 21] ([ξT][ξA][X12][ξV][ξHyp][ξT][ξT][X1][X2]G[ξT][ξOrn](Gly); linker N-C via X9) the Cytotoxicity to hepatocyte was over 100 µg/mL.
CC(C)CCCOc1ccc(-c2ccc(CC[C@@H]3CC(=O)NC(C(C)O)C(=O)NC(C)C(=O)NC(Cc4ccc(O)cc4)C(=O)NC(C(C)C)C(=O)N4CC(O)CC4C(=O)NC(C(C)O)C(=O)NC(C(C)O)C(=O)N4CCC(O)C4C(=O)NC(C(O)CC(N)=O)C(=O)NCC(=O)NC(C(C)O)C(=O)NC(CCCN)C(=O)N3)cc2)cc1 (some centres unmarked) [Aerothricin 45] ([ξT][ξA][ξY][ξV][ξHyp][ξT][ξT][X1][X2]G[ξT][ξOrn]; linker N-C via X5) gave a Cytotoxicity to hepatocyte of over 100 µg/mL.
Work on CCCCCCCCCOc1ccc2cc(CC[C@@H]3CC(=O)NC(C(C)O)C(=O)NC(C)C(=O)NC(Cc4ccc(O)cc4)C(=O)NC(C(C)C)C(=O)N4CC(O)CC4C(=O)NC(C(C)O)C(=O)NC(C(C)O)C(=O)N4CCC(O)C4C(=O)NC(C(O)CC(N)=O)C(=O)NCC(=O)NC(C(C)O)C(=O)NC(CCCN)C(=O)N3)ccc2c1 (some centres unmarked) [Aerothricin 53] ([ξT][ξA][ξY][ξV][ξHyp][ξT][ξT][X1][X2]G[ξT][ξOrn]; linker N-C via X10) yielded a Cytotoxicity to hepatocyte of over 100 µg/mL.
Work on CCCCCOc1ccc(-c2ccc(-c3ccc(C(=O)N[C@H]4C[C@@H](O)[C@@H](O)NC(=O)[C@@H]5[C@@H](O)[C@@H](C)CN5C(=O)[C@H]([C@@H](C)O)NC(=O)[C@H]([C@H](O)[C@@H](O)c5ccc(O)cc5)NC(=O)[C@@H]5C[C@@H](O)CN5C(=O)[C@H]([C@@H](C)O)NC4=O)cc3)cc2)cc1 [LY303366, reference compound] ({pTerphenylCO(4''-OnC5H11)}-[Orn(4R-OH,5R-OH)]T[Hyp][hTyr(3S-OH,4S-OH)]T[Pro(3S-OH,4S-Me)]; lactam 1-C) yielded a Cytotoxicity to hepatocyte of 10 µg/mL.

Test system: not listed separately
Assay: Solubility
Conditions: solvents in which soluble
In the case of CCCCCCCCCCCCC[C@@H]1CC(=O)NC(C(C)O)C(=O)NC(C)C(=O)NC(Cc2ccc(O)c(O)c2)C(=O)NC(C(C)C)C(=O)N2CC(O)CC2C(=O)NC(C(C)O)C(=O)NC(C(C)O)C(=O)N2CCC(O)C2C(=O)NC(C(O)CC(N)=O)C(=O)NCC(=O)NC(C(C)O)C(=O)NC(CCCN)C(=O)O1 (some centres unmarked) [Aerothricin 2] ([ξT][ξA][ξDopa][ξV][ξHyp][ξT][ξT][X1][X2]G[ξT][ξOrn]; linker N-C via X9), the Solubility is reported as “Soluble: water, methanol, dimethylsulfoxide”.
With CCCCCCCCCCCCC[C@H](CC(=O)NC(C(=O)O)C(C)O)OC(=O)C(CCCN)NC(=O)C(NC(=O)CNC(=O)C(NC(=O)C1C(O)CCN1C(=O)C(NC(=O)C(NC(=O)C1CC(O)CN1C(=O)C(N)C(C)C)C(C)O)C(C)O)C(O)CC(N)=O)C(C)O (some centres unmarked) [Compound (IX)] (H-[ξV][ξHyp][ξT][ξT][X1][X2]G[ξT][ξOrn]-X6) the Solubility was “Soluble: water, methanol, dimethylsulfoxide”.

Test system: Candida albicans
Assay: In vivo antifungal efficacy, systemic candidiasis in mice
Design: species or system Crj: CD-1 (ICR) mice
Conditions: i.v., b.i.d×1 day followed by q.d.×2 days; from survival on day 14
Experimental: Mice of a conventional immunocompetent mouse strain, Crj: CD-1 (ICR) were used for experimental infection models of systemic candidiasis. 4 weeks old Crj: CD-1 (ICR) mice were used for systemic candidiasis by injecting Candida albicans 5×10^6 conidia/mouse via the tail vein. Treatments were given twice (0, 4 h after infection) on the first day and once daily on following 2 days for systemic candidiasis (b.i.d×1 day followed by q.d.×2 days), intravenously (i.v.). 50% of effective dose (ED50) values was calculated from the survival number at each dose on day 14.
With CCCCCCCCCCCCC[C@@H]1CC(=O)NC(C(C)O)C(=O)NC(C)C(=O)NC(Cc2ccc(OC)cc2)C(=O)NC(C(C)C)C(=O)N2CC(O)CC2C(=O)NC(C(C)O)C(=O)NC(C(C)O)C(=O)N2CCC(O)C2C(=O)NC(C(O)CC(N)=O)C(=O)NCC(=O)NC(C(C)O)C(=O)NC(CCCN)C(=O)O1 (some centres unmarked) [Aerothricin 5] ([ξT][ξA][ξY](Me)[ξV][ξHyp][ξT][ξT][X1][X2]G[ξT][ξOrn]; linker N-C via X9) the “In vivo antifungal activity against systemic candidiasis in mice, ED50 on day 14” value (“In vivo antifungal activity” for short) was 0.3 mg/kg.
For CCCCCCCCCCOc1ccc(CC[C@@H]2CC(=O)NC(C(C)O)C(=O)NC(C)C(=O)NC(Cc3ccc(O)cc3)C(=O)NC(C(C)C)C(=O)N3CC(O)CC3C(=O)NC(C(C)O)C(=O)NC(C(C)O)C(=O)N3CCC(O)C3C(=O)NC(C(O)CC(N)=O)C(=O)NCC(=O)NC(C(C)O)C(=O)NC(CCCN)C(=O)N2)cc1 (some centres unmarked) [Aerothricin 36], the “In vivo antifungal activity” value was 0.6 mg/kg.
With CCCCCOc1ccc(-c2ccc(CC[C@@H]3CC(=O)NC(C(C)O)C(=O)NC(C)C(=O)NC(Cc4ccc(O)cc4)C(=O)NC(C(C)C)C(=O)N4CC(O)CC4C(=O)NC(C(C)O)C(=O)NC(C(C)O)C(=O)N4CCC(O)C4C(=O)NC(C(O)CC(N)=O)C(=O)NCC(=O)NC(C(C)O)C(=O)NC(CCCN)C(=O)N3)cc2)cc1 (some centres unmarked) [Aerothricin 41] ([ξT][ξA][ξY][ξV][ξHyp][ξT][ξT][X1][X2]G[ξT][ξOrn]; linker N-C via X13) the “In vivo antifungal activity” value was 0.3 mg/kg.
For CC(C)CCCOc1ccc(-c2ccc(CC[C@@H]3CC(=O)NC(C(C)O)C(=O)NC(C)C(=O)NC(Cc4ccc(O)cc4)C(=O)NC(C(C)C)C(=O)N4CC(O)CC4C(=O)NC(C(C)O)C(=O)NC(C(C)O)C(=O)N4CCC(O)C4C(=O)NC(C(O)CC(N)=O)C(=O)NCC(=O)NC(C(C)O)C(=O)NC(CCCN)C(=O)N3)cc2)cc1 (some centres unmarked) [Aerothricin 45] ([ξT][ξA][ξY][ξV][ξHyp][ξT][ξT][X1][X2]G[ξT][ξOrn]; linker N-C via X5), the “In vivo antifungal activity” value was 0.3 mg/kg.
For CC1NC(=O)C(C(C)O)NC(=O)C[C@@H](CCc2ccc(-c3ccc(OCCCc4ccccc4)cc3)cc2)NC(=O)C(CCCN)NC(=O)C(C(C)O)NC(=O)CNC(=O)C(C(O)CC(N)=O)NC(=O)C2C(O)CCN2C(=O)C(C(C)O)NC(=O)C(C(C)O)NC(=O)C2CC(O)CN2C(=O)C(C(C)C)NC(=O)C(Cc2ccc(O)cc2)NC1=O (some centres unmarked) [Aerothricin 46] ([ξT][ξA][ξY][ξV][ξHyp][ξT][ξT][X1][X2]G[ξT][ξOrn]; linker N-C via X8), the “In vivo antifungal activity” value was 0.4 mg/kg.
